The record followed here is patent publication US9328397B2, “Removal of arsenic using a dissimilatory arsenic reductase” (UNIWERSYTET WARSZAWSKI, priority 2013, dated 2016).

Assay [1] concerns Shewanella sp. O23S strain. The experiment in a line: Minimal inhibitory concentration (MIC) of heavy metals in LB medium. It counts as cell-based. Particulars: 24 hours at 22° C., OD600.
In assay [2] the test system is Shewanella sp. O23S strain. The experiment in a line: Dissimilatory reduction of 2.5 mM sodium arsenate in the presence of heavy metals. It counts as cell-based. Particulars: minimal R1-R2 medium; for Reduction of arsenic in the presence of the metal (maximum concentration of metals allowing for dissimilatory reduction of 2.5 mM sodium arsenate): 5 mM sodium lactate.

Bounds are passed on as bounds.

Regarding `O.O.O.O.O.O.O.O.O=S(=O)([O-])[O-].[Cd+2]` [Cd(II), CdSO4•8H2O], in assay [1], the MIC value is reported as 1 mM. The “Reduction of arsenic in the presence of the metal (maximum concentration of metals allowing for dissimilatory reduction of 2.5 mM sodium arsenate)” value (shortened to “Reduction of arsenic”) in assay [2] is recorded as 1 mM.
In assay [1], `O.O.O.O.O.O.O.O=S(=O)([O-])[O-].[Co+2]` [Co(II), CoSO4•7H2O] gave an MIC value of 2 mM. Further, the “Reduction of arsenic” value in assay [2] came to 2 mM.
Regarding `O.O.O.O.O.O.O.O.O.O.O.O.O.O.O.O.O.O.O=S(=O)([O-])[O-].O=S(=O)([O-])[O-].O=S(=O)([O-])[O-].[Cr+3].[Cr+3]` [Cr(III), Cr2(SO4)3•18H2O], in assay [1], the MIC value is 5 mM. The “Reduction of arsenic” value in assay [2] is 3 mM.
Compound `O.O.O.O.O.O=S(=O)([O-])[O-].[Cu+2]` [Cu(II), CuSO4•5H2O] showed an MIC value in assay [1] of 3 mM. Besides, the “Reduction of arsenic” value in assay [2] was determined as 2 mM.
As to `[Fe+3]` [Fe(III)], the MIC value in assay [1] came out at 5 mM. For the same compound, in assay [2], the “capability of dissimilatory reduction in the presence of the metal” value is “not demonstrated”.
In the case of `O.O=S(=O)([O-])[O-].[Mn+2]` [Mn(II), MnSO4•H2O], the MIC value in assay [1] is given as >20 mM. For the same compound, the “Reduction of arsenic” value in assay [2] is listed as >5 mM.
The corresponding values for `O.O.O.O.O.O.O.O.O.O.O=[Se](=O)([O-])[O-].[Na+].[Na+]` [Se(VI), Na2SeO4•10H2O] are >20 mM and 5 mM.
The matching figures for `[Na+].[O]=[V](=[O])[O-]` [V(V), NaVO3]: >20 mM and >5 mM.
The corresponding values for `O.O.O.O.O.O.O.O=S(=O)([O-])[O-].[Zn+2]` [Zn(II), ZnSO4•7H20] are 3 mM and 2 mM.
